Results on one compound are retold here after patent US20060286237A1, “Use of divanillin as a flavouring agent” (priority 2003, published 2006).

Each structure is given as a SMILES string.

Assay [1] is described as follows: Taste threshold value determination.
Assay [2] in a line: Sensory investigation of the taste impression of divanillin.
For assay [3] the following is noted: as described in JP 07-179853 A2; cited from earlier work.

`COc1cc(C=O)cc(-c2cc(C=O)cc(OC)c2O)c1O` [divanillin, 6,6′-dihydroxy-5,5′-dimethoxy-[1,1′-biphenyl]-3,3′-dicarboxaldehyde]: the taste threshold value result in assay [1] is “below 1 ppm”. In assay [2] (higher concentration values preferred according to JP 07-179853 A2 (0.001 to 5 wt. %)), the “taste impression at higher concentration” value is “diminishes in favour of a vanilla-like individual taste”. Further, in assay [2] (own investigations), the taste impression entry was “pleasant, adherent and rich taste impression of creaminess, milk fattiness, butteriness and sweetness”. The “odour and taste description” value in assay [3] is “odourless and tasteless”.
